# Columns and labels:
# TNBS-induced colitis [1] = experiment: Histological analysis of colon sections in TNBS-colitis model; assay type: in vivo; settings: TNBS-colitis mice; 40 mg/kg i.p. on day minus 1, day 0, day 1; day three; compared to vehicle-control treated TNBS-colitis animals
# From the text: The effectiveness of compounds and methods of the present invention on intestinal barrier protection and treatment of inflammatory bowel disease (IBD) in TNBS (2,4,6-trinitrobenzene sulfonic acid)-induced colitis, an established animal model of inflammatory bowel disease, was examined. TNBS-induced colitis was induced in mice using a modification of techniques previously described. (See Morris et al (1989) Gastroenterology 96:795-803; Boirivant et al (1998) J Exp Med 188:1929-1939; Karhausen et al (2004) J Clin Invest 114:1098-1106.) Mice were shaved on the abdomen (causing total depletion of hair and microlesions) and were then sensitized to subsequent treatment by epicutaneous application of 1% TNBS (Sigma-Aldrich) in 100% ethanol on day minus 7. Seven days later, on day 0, animals were sedated with a 2.5% Tribromoethanol solution in phosphate-buffered saline (14 μl/g body weight), followed by intrarectal administration of a 2.5% TNBS solution in 50% ethanol (5 μl/g body weight). Administration of the 2.5% TNBS solution was carried out using an epidural catheter ([…] Plus Epidural Catheter, Arrow International), which was inserted approximately 6 cm ab ano followed by release of the TNBS solution. To ensure the continuance of the TNBS solution in the colon, mice were suspended in a vertical position for at least 5 minutes following administration. Vehicle control animals received a corresponding volume of 50% ethanol solution alone. Unless otherwise indicated, compounds of the invention were administered to animals intraperitoneally (i.p.) as a solution. Animals were dosed with compound (40 mg/kg/day or 20 mg/kg/day) on day minus 1, day 0, and day 1, or exclusively on day 0 and day 1, by i.p. injection. On day 0, TNBS treatment was performed on animals 4 hours after injection of compound. The effect of methods and compounds of the present invention on structural changes of the colon associated with inflammatory bowel disease was studied using an established animal model of inflammatory bowel disease (described above in Example 1). […]
# TNBS-induced colitis [2] = experiment: Colon length shortening in TNBS-colitis model; assay type: in vivo; settings: TNBS-colitis mice, vehicle-treated greater than 17%
# From the text: The effectiveness of compounds and methods of the present invention on intestinal barrier protection and treatment of inflammatory bowel disease (IBD) in TNBS (2,4,6-trinitrobenzene sulfonic acid)-induced colitis, an established animal model of inflammatory bowel disease, was examined. TNBS-induced colitis was induced in mice using a modification of techniques previously described. (See Morris et al (1989) Gastroenterology 96:795-803; Boirivant et al (1998) J Exp Med 188:1929-1939; Karhausen et al (2004) J Clin Invest 114:1098-1106.) Mice were shaved on the abdomen (causing total depletion of hair and microlesions) and were then sensitized to subsequent treatment by epicutaneous application of 1% TNBS (Sigma-Aldrich) in 100% ethanol on day minus 7. Seven days later, on day 0, animals were sedated with a 2.5% Tribromoethanol solution in phosphate-buffered saline (14 μl/g body weight), followed by intrarectal administration of a 2.5% TNBS solution in 50% ethanol (5 μl/g body weight). Administration of the 2.5% TNBS solution was carried out using an epidural catheter ([…] Plus Epidural Catheter, Arrow International), which was inserted approximately 6 cm ab ano followed by release of the TNBS solution. […] Colon length was determined by measurement of the distance from the most distal aspect of the cecum to the most terminal aspect of the rectum on day 3 post-induction of TNBS-colitis.
smiles,measurement,setting,value
"O=C(O)CNC(=O)c1ncc2cc(Sc3ccccc3)ccc2c1O [Compound A, [(4-Hydroxy-7-phenylsulfanyl-isoquinoline-3-carbonyl)-amino]-acetic acid]",inflammatory infiltrate in colon sections,TNBS-induced colitis [1],reduction in inflammatory infiltrate
same,tissue architecture in colon sections,TNBS-induced colitis [1],overall general preservation of tissue architecture
same,villous blunting in colon sections,TNBS-induced colitis [1],reduction in villous blunting
same,average decrease in colon length at day 3,"TNBS-induced colitis [2]; 20 mg/kg i.p. on day minus 1, day 0, day 1",approximately 12%
same,average decrease in colon length at day 3,"TNBS-induced colitis [2]; 40 mg/kg i.p. on day minus 1, day 0, day 1",~8%
